Measurements reported in paper PMC6533066 (Biomedical microdevices, 2019).
Where a name gives a salt, the structure may show the parent alone.

How the values were obtained:
[1] = in vivo; cited from earlier work
[2] = Wistar rats
[3] = 1 mg/kg bolus iv (jugular vein), serum, HPLC-MS/MS, mean ± SD, n = 6 rats, SD
[4] = 1 mg/kg bolus iv, mean ± SD, n = 6 rats, SD

Row | Structure (SMILES) | detection in ISF [1] | Cmax, Serum [2, 3] | Tmax, Serum [2, 3] | delay in time to peak vancomycin concentration (Tmax) in ISF compared to serum ([2]; 1 mg/kg bolus iv, Student's t-test p < 0.05) | AUC Ratio (ISF:serum) [2, 4] | Cmax Ratio (ISF:serum) [2, 4] | Tmax Ratio (ISF:serum) [2, 4]
1 | O=C1NC(=O)C(c2ccccc2)(c2ccccc2)N1 [phenytoin] | not detectable | – | – | – | – | – | –
2 | CN[C@H](CC(C)C)C(=O)N[C@H]1C(=O)N[C@@H](CC(N)=O)C(=O)N[C@H]2C(=O)N[C@H]3C(=O)N[C@H](C(=O)N[C@H](C(=O)O)c4cc(O)cc(O)c4-c4cc3ccc4O)[C@H](O)c3ccc(c(Cl)c3)Oc3cc2cc(c3O[C@@H]2O[C@H](CO)[C@@H](O)[C@H](O)[C@H]2O[C@H]2C[C@](C)(N)[C@H](O)[C@H](C)O2)Oc2ccc(cc2Cl)[C@H]1O [vancomycin, Vancomycin hydrochloride] | – | 2600 ± 600 ng/mL | 10 ± 0 min | ~ 17 min | 1.3 ± 0.2 | 0.9 ± 0.2 | 2.7 ± 1.6
